Converted amounts (≈) assume the structure as drawn.
Experiments:
[1] = test system: K562 (human leukemia cells); test: Inhibition of proliferation of tumor cell lines (MTT), K562; assay type: cell-based; details: K562, 72 h; for IC50: Homo sapiens, read-out: IC50 value of compound for inhibition of proliferation of tumor cell lines, K562
Experimental: (§1) In this example, the inhibitory activity of compounds of the present invention against proliferation of seven human tumor cell lines and mouse B16-F10 melanoma cells was tested in vitro, and the IC50 value (50% inhibitory concentration) of compounds against each tumor cell line was calculated.
(§2) The seven human tumor cell lines are: MCF-7 (human breast cancer cells), LOVO (human colon cancer cells), A549 (human lung cancer cells), BGC-823 (human gastric cancer cells), SMMC-7721 (human liver cancer cells), K562 (human leukemia cells), and HeLa (human cervical cancer cells).
(§3) IC50 values of the compounds for A549, BGC-823, LOVO, MCF-7, SMMC-7721, HeLa, and B16-F10 cells were tested. The above cells were routinely cultured in 1640 nutrient solution containing 10% calf serum, with passage for 1 time every 2 days, and the cells in logarithmic growth phase were taken for experiments. After the A549, BGC-823, LOVO, MCF-7, SMMC-7721, HeLa and B16-F10 cells in logarithmic growth phase were subjected to 0.25% trypsin digestion, they were blown into a single cell suspension, and then the cell concentration was adjusted to about 1×10^5·mL^−1 using RPMI 1640 solution containing 10% calf serum. The cells were seeded in a 96-well culture plate at 100 μL per well, and cultured for 24 hours until the cells were attached. K562 cells were taken and centrifuged and diluted into 2×10^5·mL^−1 single cell suspension with RPMI 1640 solution containing 10% calf serum, and inoculated into a 96-well culture plate at 100 μL per well.
(§4) 100 μL of sample solution with different concentrations to be tested were added to the above 96-well plate, each concentration was added to 4 wells in parallel, and the cell control group was added with an equal volume of RPMI 1640 medium containing 10% calf serum to make a reaction volume of 200 μL. After incubating in an incubator at 37° C., 5% CO2 for 72 h, 10 μL of 5 mg·mL^−1 MTT solution was added to each well, and incubated at 37° C. for 4 h. The supernatant was carefully aspirated, 180 μL of DMSO was added to each well followed by shaking, and the absorbance (OD) value was measured at 570 nm on the microplate reader. The inhibition rate was calculated, and regression equation was established with the logarithmic value of the sample concentration and the inhibition rate (IR) to find the IC50 value of the compound against the cells to be tested. IR (%)=(1−OD value of the experimental group/OD value of the cell control group)×100%

[2] = test system: release of IL-8 by human keratinocytes (HaCaT); test: Release of IL-8 by human keratinocytes (HaCaT), IL-8 Elisa; assay type: cell-based; details: 24 h, (Csample−Ccontrol)/Ccontrol×100%
Experimental: This Example investigated the effect of compound on release of IL-8 by human keratinocytes (HaCaT) and calculated the efficiency of each compound in stimulating the release of IL-8 by human keratinocytes (HaCaT).
Hacat cells were cultured in MEM+10% FBS under the conditions of 37° C., 5% CO2, and when the cells reached 80-95% fusion, they were inoculated into a 96-well culture plate (1×10^4 cells/well) at 100 μL/well, and incubated for 18-24 h. The supernatant was discarded and the cells were incubated for 3-6 h in 1% FBS medium. Different concentrations of the sample solution of compound to be tested were added to each well, and the cell control group was added with an equal volume of 1% FBS medium at 10 μL/well, and incubated for 24 h. The supernatant was taken and tested according to the operation sequence of the IL-8 Elisa kit. Calculation formula of Efficiency: Efficiency (%)=(Csample−Ccontrol)/Ccontrol×100%

[3] = test system: HeLa (human cervical cancer cells); test: Inhibition of proliferation of tumor cell lines (MTT), HeLa; assay type: cell-based; details: 72 h; for IC50: Homo sapiens, read-out: IC50 value of compound for inhibition of proliferation of tumor cell lines, HeLA
Experimental: as §1, §2, §3, §4

[4] = test system: A549 (human lung cancer cells); test: Inhibition of proliferation of tumor cell lines (MTT), A549; assay type: cell-based; details: A549, 72 h; for IC50: Homo sapiens, read-out: IC50 value of compound for inhibition of proliferation of tumor cell lines, A549
Experimental: as §1, §2, §3, §4

[5] = test system: MCF-7 (human breast cancer cells); test: Inhibition of proliferation of tumor cell lines (MTT), MCF-7; assay type: cell-based; details: for IC50: Homo sapiens, MCF7, MCF-7, 72 h, read-out: IC50 value of compound for inhibition of proliferation of tumor cell lines, MCF-7
Experimental: as §1, §2, §3, §4

[6] = test system: LOVO (human colon cancer cells); test: Inhibition of proliferation of tumor cell lines (MTT), LOVO; assay type: cell-based; details: 72 h; for IC50: Homo sapiens, read-out: IC50 value of compound for inhibition of proliferation of tumor cell lines, LOVO
Experimental: as §1, §2, §3, §4

[7] = test system: BGC-823 (human gastric cancer cells); test: Inhibition of proliferation of tumor cell lines (MTT), BGC-823; assay type: cell-based; details: BGC-823, 72 h; for IC50: Homo sapiens, read-out: IC50 value of compound for inhibition of proliferation of tumor cell lines, BGC-823
Experimental: as §1, §2, §3, §4

[8] = test system: neutrophilic granulocytes; test: Neutrophil oxidative burst (luminol chemiluminescence); assay type: cell-based; details: rat neutrophils, (Csample−Ccontrol)/Ccontrol×100%; for activation at 0.1 µg/mL: Neutrophil, 0.1 μg/mL, read-out: Efficiency of compounds in stimulating neutrophil oxidative burst
Experimental: This example investigated the effect of compound on neutrophil oxidative burst and calculated the efficiency of each compound in stimulating neutrophil oxidative burst.
Blood was taken from the abdominal aorta of rat. The neutrophilic granulocytes were isolated by the operational procedure of the rat peripheral blood neutrophil isolation kit. The neutrophilic granulocytes were re-suspended by Hanks, and were plated in a 96-well white plate at 1×10^5 cells/well, 80 μL/well; 1 mM of Luminol was added at 10 μL/well; 10 μL of the sample was added to each well, and the degree of oxidative burst was evaluated by chemiluminescence. Calculation formula of Efficiency: Efficiency (%)=(Csample−Ccontrol)/Ccontrol×100%

[9] = test system: SMMC-7721 (human liver cancer cells); test: Inhibition of proliferation of tumor cell lines (MTT), SMMC-7721; assay type: cell-based; details: SMMC-7721, 72 h; for IC50: Homo sapiens, read-out: IC50 value of compound for inhibition of proliferation of tumor cell lines, SMMC-7721
Experimental: as §1, §2, §3, §4

[10] = test system: mouse B16-F10 melanoma cells; test: Inhibition of proliferation of tumor cell lines (MTT), B16-F10; assay type: cell-based; details: B16-F10, 72 h; for IC50: Mus musculus, read-out: IC50 value of compound for inhibition of proliferation of tumor cell lines, B16-F10
Experimental: as §1, §3, §4

B16-F0 mouse melanoma = test: Antitumor activity in B16-F0 mouse melanoma model; assay type: in vivo; details: female C57BL/6J mice, intradermal B16 tumor, skin administration once per day for 3 days, 20 μL/mouse, tumor weight on day 19
Experimental: This Example investigated the antitumor activity of compounds in B16-F0 mouse melanoma model.
In vitro passage of B16-F0 tumor source was inoculated subcutaneously into female C57BL/6J mice, and passage was carried out after tumor formation. After passage, the subcutaneous tumor tissue of the tumor-bearing mice was taken and ground with 3 times amount of physiological saline to form a tumor cell suspension, and 0.2 mL/mouse of which was inoculated subcutaneously into the axilla of forelimb of mice, which were used as the tumor-source mice. Female C57BL/6J mice were taken and their hair in an area of 4 cm^2 on the neck and back was shaven. After anesthesia with diethyl ether, B16 tumor source was inoculated intradermally at 0.05 mL/mouse. After 3 days of inoculation, the skin was continuously administered for 3 days, once per day, 20 μL/mouse each time, and in the test, a solvent group as a negative control group was included. On the 19th day of the experiment, the experiment was terminated. After the mice were euthanized, the intradermally transplanted tumors were completely separated and excised, and the tumor was weighed to calculate the tumor inhibition rate. Calculation formula of tumor inhibition rate: tumor inhibition rate (%)=(Wmodel group−Wadministration group)/Wmodel group×100%
The tumor growths of the experimental group and the solvent control group were compared to evaluate the antitumor activity of each compound, and the compound with P<0.05 was considered to be effective.

[11] = Homo sapiens, HaCaT, 0.1 μg/mL, read-out: Efficiency of compound in stimulating the release of IL-8 by HaCaT cells

CCCCCCCCCCCC(=O)O[C@@]12C[C@@H](C)[C@]34C=C(C)[C@H](OC(=O)C(C)C(C)C)[C@@]3(O)[C@H](O)C(CO)=C[C@H](C4=O)[C@@H]1C2(C)C (stereo partly shown) [3-O-(2,3-dimethylbutyryl)-13-O-dodecanoyl-ingenol]
IC50 [1]: 0.12 µg/mL (≈ 0.186 µM) | activation at 0.1 µg/mL [2, 11]: 50% | IC50 [3]: 24.3 µg/mL (≈ 37.7 µM) | IC50 [4]: 11 µg/mL (≈ 17.1 µM) | IC50 [5]: 9.05 µg/mL (≈ 14 µM) | IC50 [6]: 7.6 µg/mL (≈ 11.8 µM) | IC50 [7]: 10.4 µg/mL (≈ 16.1 µM) | activation at 0.1 µg/mL [8]: 71.4% | IC50 [9]: 14.5 µg/mL (≈ 22.5 µM) | IC50 [10]: 17.8 µg/mL (≈ 27.6 µM)

C/C=C(/C)C(=O)O[C@H]1C(C)=C[C@]23C(=O)[C@@H](C=C(CO)[C@@H](O)[C@]12O)[C@H]1[C@@H](C[C@H]3C)C1(C)C [3-O-angeloyl-ingenol, reference compound]
IC50 value of compound for inhibition of proliferation of tumor cell lines, K562 [1]: 7.6 ng/mL | Efficiency of compound in stimulating the release of IL-8 by HaCaT cells ([2]; 0.1 μg/mL): 31.9% | Efficiency of compound in stimulating the release of IL-8 by HaCaT cells ([2]; 1 μg/mL): 41.4% | IC50 value of compound for inhibition of proliferation of tumor cell lines, HeLA [3]: 49.4 µg/mL | IC50 value of compound for inhibition of proliferation of tumor cell lines, A549 [4]: 31.2 µg/mL | IC50 value of compound for inhibition of proliferation of tumor cell lines, MCF-7 ([5]; MCF-7, 72 h): 57.4 µg/mL | IC50 value of compound for inhibition of proliferation of tumor cell lines, LOVO [6]: 33.4 µg/mL | IC50 value of compound for inhibition of proliferation of tumor cell lines, BGC-823 [7]: 43.5 µg/mL | Efficiency of compounds in stimulating neutrophil oxidative burst ([8]; 3 μg/mL): 51.4% | IC50 value of compound for inhibition of proliferation of tumor cell lines, SMMC-7721 [9]: 28.2 µg/mL | IC50 value of compound for inhibition of proliferation of tumor cell lines, B16-F10 [10]: 38.1 µg/mL

C/C=C(/C)C(=O)O[C@H]1C(C)=C[C@]23C(=O)[C@@H](C=C(CO)[C@@H](O)[C@]12O)[C@@H]1C(C)(C)[C@]1(OC(C)=O)C[C@H]3C [Compound 8, 3-O-angeloyl-13-O-acetyl-ingenol]
IC50 [1]: 0.0065 µg/mL (≈ 0.0133 µM) | activation at 1 µg/mL ([2]; Homo sapiens, HaCaT, 1 μg/mL, read-out: Efficiency of compound in stimulating the release of IL-8 by HaCaT cells): 38.3% | IC50 [3]: > 100 µg/mL | IC50 [4]: > 50 µg/mL | IC50 [5]: > 50 µg/mL | IC50 [6]: > 50 µg/mL | Tumor-inhibition rate (B16-F0 mouse melanoma): 90.3% | IC50 [7]: > 100 µg/mL | IC50 [9]: 96.6 µg/mL (≈ 198 µM)

CCCCCCCCCCCC(=O)O[C@@]12C[C@@H](C)[C@]34C=C(C)[C@H](OC(C)=O)[C@@]3(O)[C@H](O)C(CO)=C[C@H](C4=O)[C@@H]1C2(C)C [Compound 10, 3-O-acetyl-13-O-dodecanoyl-ingenol]
IC50 [1]: 0.22 µg/mL (≈ 0.374 µM) | activation at 0.1 µg/mL [2, 11]: 79.5% | IC50 [3]: 10.9 µg/mL (≈ 18.5 µM) | IC50 [4]: 10.7 µg/mL (≈ 18.2 µM) | IC50 [5]: 16.3 µg/mL (≈ 27.7 µM) | IC50 [6]: 9.41 µg/mL (≈ 16 µM) | IC50 [7]: 14.7 µg/mL (≈ 25 µM) | activation at 0.1 µg/mL [8]: 111% | IC50 [9]: 13.1 µg/mL (≈ 22.2 µM) | IC50 [10]: 21.4 µg/mL (≈ 36.3 µM)

From patent US11753363B2, “13-oxidized ingenol derivative and use thereof” (Tianjin Pharmaceutical Da Ren Tang Group Corp., Ltd. …, priority 2017, dated 2023)
